Assay [1] concerns the target T1, Sodium/glucose cotransporter 1 (Homo sapiens, UniProt P13866).
T1 sequence (P13866 whole entry): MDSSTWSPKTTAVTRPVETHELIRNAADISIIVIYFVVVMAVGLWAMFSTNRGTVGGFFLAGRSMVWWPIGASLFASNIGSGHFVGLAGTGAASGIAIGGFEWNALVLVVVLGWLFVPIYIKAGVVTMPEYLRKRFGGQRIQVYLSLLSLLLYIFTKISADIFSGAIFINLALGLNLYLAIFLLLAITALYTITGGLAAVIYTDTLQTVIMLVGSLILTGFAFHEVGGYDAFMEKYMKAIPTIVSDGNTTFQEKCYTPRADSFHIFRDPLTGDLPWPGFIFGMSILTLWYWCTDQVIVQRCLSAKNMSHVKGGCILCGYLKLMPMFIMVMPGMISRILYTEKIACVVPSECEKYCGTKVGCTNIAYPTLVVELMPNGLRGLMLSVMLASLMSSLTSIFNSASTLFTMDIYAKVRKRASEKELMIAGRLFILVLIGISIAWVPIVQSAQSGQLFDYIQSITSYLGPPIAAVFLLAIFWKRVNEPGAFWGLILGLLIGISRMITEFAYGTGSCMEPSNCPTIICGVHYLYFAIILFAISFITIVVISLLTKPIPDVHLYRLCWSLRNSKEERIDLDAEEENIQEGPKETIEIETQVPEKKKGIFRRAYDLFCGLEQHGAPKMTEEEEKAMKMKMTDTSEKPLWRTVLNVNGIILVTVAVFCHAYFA
The experiment in a line: (§1) These cell lines transport 14C-labelled alpha-methyl-glucopyranoside (14C-AMG, Amersham) into the interior of the cell in sodium-dependent manner.The SGLT-2 assay is carried out as follows: CHO-hSGLT2 cells are cultivated in Ham's F12 Medium (BioWhittaker) with 10% foetal calf serum and 250 ug/mL zeocin (Invitrogen), and HEK293-hSGLT2 cells are cultivated in DMEM medium with 10% foetal calf serum and 250 ug/mL zeocin (Invitrogen). The cells are detached from the culture flasks by washing twice with PBS. Format: cell-based.

For assay [2], the target named is T2, Sodium/glucose cotransporter 2 (Homo sapiens, UniProt P31639).
T2 sequence (P31639 whole entry): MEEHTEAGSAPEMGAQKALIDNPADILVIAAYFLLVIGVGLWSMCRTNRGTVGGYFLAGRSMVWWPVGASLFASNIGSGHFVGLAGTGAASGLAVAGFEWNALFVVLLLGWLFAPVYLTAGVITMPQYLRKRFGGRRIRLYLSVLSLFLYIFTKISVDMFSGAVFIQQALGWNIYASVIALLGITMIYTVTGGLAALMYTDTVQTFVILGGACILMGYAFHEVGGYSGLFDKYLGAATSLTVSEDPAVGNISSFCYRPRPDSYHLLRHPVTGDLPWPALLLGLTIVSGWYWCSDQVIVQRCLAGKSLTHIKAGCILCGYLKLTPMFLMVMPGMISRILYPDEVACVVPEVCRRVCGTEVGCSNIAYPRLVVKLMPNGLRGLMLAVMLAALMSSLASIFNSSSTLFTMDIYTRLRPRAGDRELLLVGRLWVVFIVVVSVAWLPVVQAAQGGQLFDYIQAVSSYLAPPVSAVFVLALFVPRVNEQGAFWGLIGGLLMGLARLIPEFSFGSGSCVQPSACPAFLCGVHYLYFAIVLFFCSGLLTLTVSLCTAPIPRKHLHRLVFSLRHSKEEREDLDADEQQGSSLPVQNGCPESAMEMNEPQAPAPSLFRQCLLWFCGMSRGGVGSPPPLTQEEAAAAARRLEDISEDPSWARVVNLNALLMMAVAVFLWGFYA
The assay is described as §1. The assay is classed as cell-based.

Regarding `CCc1ccc([C@@H]2O[C@H](COC(=O)OC(C)(C)C)[C@@H](O)[C@H](O)[C@H]2O)cc1Cc1ccc2c(c1)OCCO2`, the figures for the IC50 in assay [1] and in assay [2] were 188 nM and 89 nM, respectively.

As for `CCc1ccc([C@@H]2O[C@H](COP(=O)(O)O)[C@@H](O)[C@H](O)[C@H]2O)cc1Cc1ccc2c(c1)OCCO2`, the IC50 was 89.3 nM in assay [1] and 2.4 nM in assay [2].

The record behind these values is ChEMBL document CHEMBL3639144, “Glycoside derivatives and uses thereof” (2013).
